What was measured:
[1] = tested on: zebrafish embryos; experiment: Zebrafish toxicity: mortality rate; format: in vivo, zebrafish (Danio rerio)
Experimental: (§1) To investigate the toxicity of these four compounds, the heart rates and the mortality rates of zebrafish embryos were recorded (Table 2 and Table 3). The heart rate of zebrafish in the control group was 117 beats/min.
(§2) Using transgenic fli-1: enhanced GFP zebrafish embryos, we investigated the effects of all compounds on angiogenesis. Zebrafish embryos were generated by natural pairwise mating and raised at 28.5 °C in embryo water (0.2 g/L of Instant Ocean Salt in distilled water). At about 6 h post fertilization (hpf), the embryos were sorted in the 6-well plate (six embryos/well), removing dead and unhealthy embryos. Then the embryos were treated with the indicated concentrations of compounds which were added into embryo water. After incubation for 24 or 48 h, the embryos were anesthetized using 0.05% 2-phenoxyethanol in embryo water, quantified and photographed.

[2] = tested on: HUVEC; experiment: MTT assay, cell proliferation; format: cell-based, Human; conditions: Homo sapiens, 24 h, read-out: IC50, inhibition of cell proliferation
Procedure, shortened: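 Absorbance at 570 nm of DMSO-dissolved formazan was expressed as percentage growth relative to untreated cells, and IC50 was taken as the concentration giving 50% inhibition. Seeding was 5 × 10^3 cells per well, with 24 h compound treatment followed by 3 h MTT.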

[3] = tested on: zebrafish embryos; experiment: Zebrafish toxicity: heart rates; format: in vivo; conditions: for Heart rates of zebrafish: control 117 beats/min
Experimental: as §1, §2

[4] = tested on: LO2; experiment: MTT assay, cytotoxicity; format: cell-based; conditions: Homo sapiens, L02, 24 h, read-out: IC50, inhibition of cell proliferation
Procedure, shortened: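 Cells (5 × 10^3/well) exposed to compound for 24 h at 37 °C, 5% CO2; HepG2, HeLa, LO2 in DMEM and K562 in RPMI 1640, each with 10% FBS. MTT added for 3 h, formazan dissolved in DMSO, absorbance at 570 nm. IC50 = concentration giving 50% inhibition of proliferation versus untreated control.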

Question: What does the source list for CC(=O)Nc1ccc(NC(=O)/C(C)=C\CC23OC(C)(C)C4CC(C=C5C(=O)c6c(O)c7c(c(CC8OC8(C)C)c6OC542)OC(C)(CCC2OC2(C)C)C=C7)C3=O)cc1 (stereo not drawn) [Compound 36, (32,33),(37,38)-Diepoxy-N-(4-acetamidophenyl) gambogamide]?
Answer: Mortality rates ([1]; 1 μM, zebrafish): 0%; Mortality rates ([1]; 2.5 µM and 10 µM, zebrafish embryos): less than 20%; Mortality rates ([1]; 2.5 μM, zebrafish): 3.3 ± 5.77 %; Mortality rates ([1]; 10 μM, zebrafish): 16.7 ± 5.77 %; IC50 [2]: 2450 ± 90 nM; heart rates relative to control group ([3]; 2.5 µM and 10 µM, zebrafish): about half of the control group; Heart rates of zebrafish ([3]; 2.5 μM): 60 ± 5.2 beats/min; Heart rates of zebrafish ([3]; 10 μM): 60 ± 2.86 beats/min; IC50 [4]: 1620 ± 80 nM

From publication PMC6268492, “Synthesis and Antiangiogenic Activity of Novel Gambogic Acid Derivatives” (Molecules, 2012)
